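Tested at 5 concentrations; 48 h exposure; 96-well plates; endpoints linearly interpolated, else capped at highest concentration. At the GI50, growth is halved.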 The source made the active and inactive calls. Cut-off read from the data, not from the text of the source: active = GI50 up to about 1.1 µM and inactive = higher.
Columns and labels:
Experiment in all cases: inhibition of tumour cell growth, NCI panel, 48 h
[1] = test system: 786-0
[2] = test system: A498
[3] = test system: A549
[4] = test system: ACHN
[5] = test system: BT-549
[6] = test system: CAKI-1
[7] = test system: CCRF-CEM
[8] = test system: COLO 205
[9] = test system: DU-145
[10] = test system: HCC 2998
[11] = test system: HCT-116
[12] = test system: HCT-15
[13] = test system: HOP-62
[14] = test system: HOP-92
[15] = test system: HT-29
[16] = test system: Hs-578T
[17] = test system: IGROV-1
[18] = test system: KM12
[19] = test system: M14
[20] = test system: MCF7
[21] = test system: MDA-MB-231
[22] = test system: MDA-MB-435
[23] = test system: MDA-N
[24] = test system: MOLT-4
[25] = test system: Malme-3M
[26] = test system: NCI-H226
[27] = test system: NCI-H23
[28] = test system: NCI-H460
[29] = test system: NCI-H522
[30] = test system: NCI/ADR-RES
[31] = test system: OVCAR-3
[32] = test system: OVCAR-4
[33] = test system: OVCAR-5
[34] = test system: OVCAR-8
[35] = test system: PC-3
[36] = test system: RXF 393
[37] = test system: SF-268
[38] = test system: SF-295
[39] = test system: SF-539
[40] = test system: SK-MEL-28
[41] = test system: SK-MEL-2
[42] = test system: SK-OV-3
[43] = test system: SN12C
[44] = test system: SR
[45] = test system: SW-620
[46] = test system: T47D
[47] = test system: TK-10
[48] = test system: U-251
[49] = test system: UACC-257
[50] = test system: UACC-62
[51] = test system: UO-31

SMILES: N#CCc1nc(C#N)c(N)o1
- GI50 [1]: > 100 µM (inactive)
- GI50 [2]: > 100 µM (inactive)
- GI50 [3]: > 100 µM (inactive)
- GI50 [4]: > 100 µM (inactive)
- GI50 [5]: > 100 µM (inactive)
- GI50 [6]: > 100 µM (inactive)
- GI50 [7]: > 100 µM (inactive)
- GI50 [8]: > 100 µM (inactive)
- GI50 [9]: > 100 µM (inactive)
- GI50 [10]: > 100 µM (inactive)
- GI50 [11]: > 100 µM (inactive)
- GI50 [12]: > 100 µM
- GI50 [13]: > 100 µM (inactive)
- GI50 [14]: > 100 µM (inactive)
- GI50 [15]: > 100 µM (inactive)
- GI50 [16]: > 100 µM (inactive)
- GI50 [17]: > 100 µM (inactive)
- GI50 [18]: > 100 µM (inactive)
- GI50 [19]: > 100 µM (inactive)
- GI50 [20]: > 100 µM (inactive)
- GI50 [21]: > 100 µM (inactive)
- GI50 [22]: > 100 µM (inactive)
- GI50 [23]: > 100 µM (inactive)
- GI50 [24]: > 100 µM (inactive)
- GI50 [25]: < 0.01 µM (active)
- GI50 [26]: > 100 µM (inactive)
- GI50 [27]: > 100 µM (inactive)
- GI50 [28]: > 100 µM (inactive)
- GI50 [29]: > 100 µM (inactive)
- GI50 [30]: > 100 µM (inactive)
- GI50 [31]: > 100 µM (inactive)
- GI50 [32]: > 100 µM (inactive)
- GI50 [33]: > 100 µM (inactive)
- GI50 [34]: > 100 µM (inactive)
- GI50 [35]: > 100 µM (inactive)
- GI50 [36]: > 100 µM (inactive)
- GI50 [37]: > 100 µM (inactive)
- GI50 [38]: > 100 µM (inactive)
- GI50 [39]: > 100 µM (inactive)
- GI50 [40]: > 100 µM (inactive)
- GI50 [41]: > 100 µM (inactive)
- GI50 [42]: > 100 µM (inactive)
- GI50 [43]: > 100 µM (inactive)
- GI50 [44]: > 100 µM (inactive)
- GI50 [45]: > 100 µM (inactive)
- GI50 [46]: > 100 µM (inactive)
- GI50 [47]: > 100 µM (inactive)
- GI50 [48]: > 100 µM (inactive)
- GI50 [49]: > 100 µM (inactive)
- GI50 [50]: > 100 µM (inactive)
- GI50 [51]: > 100 µM (inactive)
